Measurements published in patent US4159373A, “7-Acyl-3-(sulfonic acid and sulfamoyl substituted tetrazolyl thiomethyl) cephalosporins” (SmithKline Corporation, priority 1978, dated 1979).
Converted amounts (≈) assume the structure as drawn. Read-outs that look alike come from different tables or passages of the source.

How the values were obtained:
Psuedo. sp. HH 63 = assay: MIC in vitro; format: cell-based, Pseudo. aeruginosa; conditions: Pseudomonas aeruginosa; Table 1; Psuedo. sp. HH 63; read-out: MIC in vitro
Description: (§1) The compounds of Formula I have exceptional antibacterial activity against both Gram-positive and Gram-negative organisms. Minimum inhibitory concentrations (MIC's) ranged from 0.2 to <200 μg./ml. in in vitro testing.

E. coli 12140 = assay: In vivo mouse protection, E. coli 12140; conditions: Table 2, E. coli 12140, read-out: ED50 in vivo
Serra. marc ATCC 13880 = assay: MIC in vitro; format: cell-based, Serratia marcescens; conditions: Serratia marcescens
Description: as §1

S. aureus HH 127 = assay: MIC in vitro; format: cell-based; conditions: Staphylococcus aureus, HH127; Table 1; S. aureus HH 127; read-out: MIC in vitro
Description: as §1

shigella HH 117 = assay: MIC in vitro; format: cell-based; conditions: HH117; Table 1; shigella HH 117; read-out: MIC in vitro
Description: as §1

E. coli HH 33779 = assay: MIC in vitro; format: cell-based; conditions: Escherichia coli
Description: as §1

Strep. Faecalis HH 34358 = assay: MIC in vitro; format: cell-based; conditions: Enterococcus faecalis, Table 1; Strep. Faecalis HH 34358; read-out: MIC in vitro
Description: as §1

E. coli SK 12140 = assay: MIC in vitro; format: cell-based; conditions: Escherichia coli, E. coli SK 12140
Description: as §1

S. aureus SK 23390 = assay: MIC in vitro; format: cell-based; conditions: Staphylococcus aureus
Description: as §1

Salmonella ATCC 12176 = assay: MIC in vitro; format: cell-based; conditions: Salmonella, ATCC12176, Table 1, read-out: MIC in vitro
Description: as §1

S. villaluz = assay: MIC in vitro; format: cell-based; conditions: Table 1
Description: as §1

Proteus morgani 179 = assay: MIC in vitro; format: cell-based; conditions: Table 1, read-out: MIC in vitro
Description: as §1

[1] = system: Entero. aerog. ATCC 13048; assay: MIC in vitro; format: cell-based, Enterobacter aerogenes; conditions: Klebsiella aerogenes
Description: as §1

Kleb. pneumo. SK 4200 = assay: MIC in vitro; format: cell-based, Kleb. pneumoniae; conditions: Klebsiella pneumoniae, read-out: MIC in vitro
Description: as §1

Kleb. pneumo. SK 1200 = assay: MIC in vitro; format: cell-based, Kleb. pneumoniae; conditions: Klebsiella pneumoniae, read-out: MIC in vitro
Description: as §1

Entero. cloacae HH 31254 = assay: MIC in vitro; format: cell-based; conditions: Enterobacter cloacae
Kleb. pneumo. 4200 = assay: In vivo mouse protection, Kleb. pneumo. 4200; conditions: read-out: ED50 in vivo
[2] = Escherichia coli, 12140, po, p.o.
[3] = Escherichia coli, 12140, sc, s.c.
[4] = ATCC13880, Table 1, Serra. marc ATCC 13880, read-out: MIC in vitro
[5] = HH33779, Table 1, E. coli HH 33779, read-out: MIC in vitro
[6] = SK12140, read-out: MIC in vitro, Table 1
[7] = ATCC13048, Table 1, Entero. aerog. ATCC 13048, read-out: MIC in vitro
[8] = HH31254, read-out: MIC in vitro, Table 1
[9] = SK12140, Table 1, read-out: MIC in vitro
[10] = SK23390, Table 1, S. aureus SK 23390, read-out: MIC in vitro
[11] = HH31254, Table 1, read-out: MIC in vitro
[12] = ATCC13880, read-out: MIC in vitro
[13] = po, Table 2, Kleb. pneumo. 4200, p.o.
[14] = sc, Table 2, Kleb. pneumo. 4200, s.c.

Structure (SMILES): NS(=O)(=O)CCn1nnnc1SCC1=C(C(=O)O)N2C(=O)C(NC(=O)CSC(F)(F)F)C2SC1 (stereo not shown) [IX, 7-Trifluoromethylthioacetamido-3-[1-(2-sulfamoylethyl)tetrazol-5-ylthiomethyl]-3-cephem-4-carboxylic acid]
- MIC (Psuedo. sp. HH 63): > 200 µg/mL
- ED50 (E. coli 12140; [2]): 44 mg/kg
- ED50 (E. coli 12140; [3]): 1.56 mg/kg
- MIC (Serra. marc ATCC 13880; [4]): 100 µg/mL (≈ 177 µM)
- MIC (S. aureus HH 127): 0.4 µg/mL (≈ 0.71 µM)
- MIC (shigella HH 117): 0.2 µg/mL (≈ 0.355 µM)
- MIC (E. coli HH 33779; [5]): 1.6 µg/mL (≈ 2.84 µM)
- MIC (Strep. Faecalis HH 34358): 12.5 µg/mL (≈ 22.2 µM)
- MIC (E. coli SK 12140; [6]): 0.8 µg/mL (≈ 1.42 µM)
- MIC (S. aureus SK 23390; SK23390, read-out: MIC in vitro): 0.2 µg/mL (≈ 0.355 µM)
- MIC (Salmonella ATCC 12176): 0.4 µg/mL (≈ 0.71 µM)
- MIC (S. villaluz): 6.3 µg/mL (≈ 11.2 µM)
- MIC (Proteus morgani 179): 200 µg/mL (≈ 355 µM)
- MIC [1, 7]: 1.6 µg/mL (≈ 2.84 µM)
- MIC (Kleb. pneumo. SK 4200): 0.8 µg/mL (≈ 1.42 µM)
- MIC (Kleb. pneumo. SK 1200; Table 1, Kleb. pneumo. SK 1200): 0.4 µg/mL (≈ 0.71 µM)
- MIC (Entero. cloacae HH 31254; [8]): 0.8 µg/mL (≈ 1.42 µM)

Structure (SMILES): N#CCC(=O)NC1C(=O)N2C(C(=O)O)=C(CSc3nnnn3CS(=O)(=O)O)CS[C@H]12 (stereo partly shown) [XII, 7-cyanoacetamido-3-(1-sulfomethyltetrazol-5-ylthiomethyl)-3-cephem-4-carboxylic acid]
- MIC (Psuedo. sp. HH 63): > 200 µg/mL
- MIC (Serra. marc ATCC 13880; [4]): 50 µg/mL (≈ 105 µM)
- MIC (S. aureus HH 127): 1.6 µg/mL (≈ 3.36 µM)
- MIC (E. coli HH 33779; [5]): 1.6 µg/mL (≈ 3.36 µM)
- MIC (Strep. Faecalis HH 34358): 50 µg/mL (≈ 105 µM)
- MIC (E. coli SK 12140; [9]): 0.8 µg/mL (≈ 1.68 µM)
- MIC (S. aureus SK 23390; [10]): 1.6 µg/mL (≈ 3.36 µM)
- MIC (Salmonella ATCC 12176): 0.4 µg/mL (≈ 0.841 µM)
- MIC (S. villaluz): > 200 µg/mL
- MIC (Proteus morgani 179): 200 µg/mL (≈ 421 µM)
- MIC [1, 7]: 3.1 µg/mL (≈ 6.52 µM)
- MIC (Kleb. pneumo. SK 4200; Table 1, Kleb. pneumo. SK 4200): 0.8 µg/mL (≈ 1.68 µM)
- MIC (Kleb. pneumo. SK 1200): 0.4 µg/mL (≈ 0.841 µM)
- MIC (Entero. cloacae HH 31254; [11]): 1.6 µg/mL (≈ 3.36 µM)

Structure (SMILES): NCc1ccccc1CC(=O)NC1C(=O)N2C(C(=O)O)=C(CSc3nnnn3CS(=O)(=O)O)CS[C@H]12 (stereo partly shown) [XI, 7-(o-aminomethylphenylacetamido)-3-(1-sulfomethyltetrazol-5-ylthiomethyl)-3-cephem-4-carboxylic acid]
- MIC (Psuedo. sp. HH 63): > 200 µg/mL
- ED50 (E. coli 12140; [3]): 21.5 mg/kg
- MIC (Serra. marc ATCC 13880; [12]): 6.3 µg/mL (≈ 11.3 µM)
- MIC (S. aureus HH 127): 1.6 µg/mL (≈ 2.88 µM)
- MIC (E. coli HH 33779; HH33779, read-out: MIC in vitro): 0.4 µg/mL (≈ 0.72 µM)
- MIC (Strep. Faecalis HH 34358): 25 µg/mL (≈ 45 µM)
- MIC (E. coli SK 12140; [6]): 0.2 µg/mL (≈ 0.36 µM)
- MIC (S. aureus SK 23390; [10]): 1.6 µg/mL (≈ 2.88 µM)
- MIC (Salmonella ATCC 12176): ≤ 0.1 µg/mL
- MIC (S. villaluz): 200 µg/mL (≈ 360 µM)
- MIC (Proteus morgani 179): 50 µg/mL (≈ 90 µM)
- MIC ([1]; ATCC13048, read-out: MIC in vitro): 0.8 µg/mL (≈ 1.44 µM)
- MIC (Kleb. pneumo. SK 4200; Table 1, Kleb. pneumo. SK 4200): ≤ 0.1 µg/mL
- MIC (Kleb. pneumo. SK 1200; Table 1, Kleb. pneumo. SK 1200): ≤ 0.1 µg/mL
- MIC (Entero. cloacae HH 31254; [8]): 0.8 µg/mL (≈ 1.44 µM)

Structure (SMILES): NS(=O)(=O)CCn1nnnc1SCC1=C(C(=O)O)N2C(=O)C(NC(=O)[C@H](O)c3ccccc3)[C@H]2SC1 (stereo partly drawn) [III, 7-D-mandelamido-3-[1-(2-sulfamoylethyl)tetrazol-5-ylthiomethyl]-3-cephem-4-carboxylic acid]
- MIC (Psuedo. sp. HH 63): > 200 µg/mL
- ED50 (Kleb. pneumo. 4200; [13]): 21.5 mg/kg
- ED50 (Kleb. pneumo. 4200; [14]): 0.68 mg/kg
- ED50 (E. coli 12140; [2]): 25 mg/kg
- ED50 (E. coli 12140; [3]): 0.7 mg/kg
- MIC (Serra. marc ATCC 13880; [12]): 6.3 µg/mL (≈ 11.3 µM)
- MIC (S. aureus HH 127): 1.6 µg/mL (≈ 2.88 µM)
- MIC (shigella HH 117): 0.2 µg/mL (≈ 0.36 µM)
- MIC (E. coli HH 33779; [5]): 1.6 µg/mL (≈ 2.88 µM)
- MIC (Strep. Faecalis HH 34358): 12.5 µg/mL (≈ 22.5 µM)
- MIC (E. coli SK 12140; [9]): 0.8 µg/mL (≈ 1.44 µM)
- MIC (S. aureus SK 23390; [10]): 0.2 µg/mL (≈ 0.36 µM)
- MIC (Salmonella ATCC 12176): 0.4 µg/mL (≈ 0.72 µM)
- MIC (Proteus morgani 179): 3.1 µg/mL (≈ 5.58 µM)
- MIC [1, 7]: 3.1 µg/mL (≈ 5.58 µM)
- MIC (Kleb. pneumo. SK 4200; Table 1, Kleb. pneumo. SK 4200): 1.6 µg/mL (≈ 2.88 µM)
- MIC (Kleb. pneumo. SK 1200; Table 1, Kleb. pneumo. SK 1200): 0.8 µg/mL (≈ 1.44 µM)
- MIC (Entero. cloacae HH 31254; [8]): 0.8 µg/mL (≈ 1.44 µM)

Structure (SMILES): O=C(O)C1=C(CSc2nnnn2CCS(=O)(=O)O)CS[C@@H]2C(NC(=O)[C@H](O)c3ccccc3)C(=O)N12 (stereo partly drawn) [II, 7-D-Mandelamido-3-[1-(2-sulfoethyl)tetrazol-5-ylthiomethyl]-3-cephem-4-carboxylic acid]
- MIC (Psuedo. sp. HH 63): > 200 µg/mL
- ED50 (Kleb. pneumo. 4200; [13]): 18.6 mg/kg
- ED50 (Kleb. pneumo. 4200; [14]): 0.39 mg/kg
- ED50 (E. coli 12140; [2]): 35 mg/kg
- ED50 (E. coli 12140; [3]): 0.58 mg/kg
- MIC (Serra. marc ATCC 13880; [4]): 25 µg/mL (≈ 44.9 µM)
- MIC (S. aureus HH 127): 1.6 µg/mL (≈ 2.87 µM)
- MIC (shigella HH 117): 0.4 µg/mL (≈ 0.719 µM)
- MIC (E. coli HH 33779; [5]): 1.6 µg/mL (≈ 2.87 µM)
- MIC (Strep. Faecalis HH 34358): 50 µg/mL (≈ 89.8 µM)
- MIC (E. coli SK 12140; [9]): 0.8 µg/mL (≈ 1.44 µM)
- MIC (S. aureus SK 23390; [10]): 0.8 µg/mL (≈ 1.44 µM)
- MIC (Salmonella ATCC 12176): 0.8 µg/mL (≈ 1.44 µM)
- MIC (Proteus morgani 179): 6.3 µg/mL (≈ 11.3 µM)
- MIC [1, 7]: 6.3 µg/mL (≈ 11.3 µM)
- MIC (Kleb. pneumo. SK 4200; Table 1, Kleb. pneumo. SK 4200): 0.8 µg/mL (≈ 1.44 µM)
- MIC (Kleb. pneumo. SK 1200): 0.4 µg/mL (≈ 0.719 µM)
- MIC (Entero. cloacae HH 31254; [11]): 3.1 µg/mL (≈ 5.57 µM)
